Results taken from US20030166645A1, “Novel nitrofuran-containing heterocyclic compounds and uses thereof” (priority 2001, published 2003).
Values after ≈ are worked out from the molar mass of the structure shown.

Assays:
Assay in all cases: Microdilution antimicrobial susceptibility test (MIC)
Assay type in all cases: cell-based
E faecalis = details: broth microdilution, 18-24 h, MIC = 90% inhibition of growth; for MIC: read-out: MIC E faecalis MIC2
M. catarrhalis = details: broth microdilution, 18-24 h, MIC = 90% inhibition of growth; for MIC: Moraxella catarrhalis, read-out: MIC M. catarrhalis MIC2
P aeruginosa = details: broth microdilution, 18-24 h, MIC = 90% inhibition of growth
E coli = details: broth microdilution, 18-24 h, MIC = 90% inhibition of growth; for MIC: read-out: MIC E coli MIC2
S cerevisiae = details: broth microdilution, 18-24 h, MIC = 90% inhibition of growth; for MIC: read-out: MIC S cerevisiae MIC7
S aureus = details: broth microdilution, 18-24 h, MIC = 90% inhibition of growth; for MIC: read-out: MIC S aureus MIC2
H influenzae = details: broth microdilution, 18-24 h, MIC = 90% inhibition of growth; for MIC: read-out: MIC H influenzae MIC4
E coli (ImpA) = details: broth microdilution, 18-24 h, MIC = 90% inhibition of growth; for MIC: read-out: MIC E coli (ImpA) MIC9
Description: Microdilution Antimicrobial Susceptibility Test Assay
Stock solutions of tested compounds were prepared in N,N-dimethylformamide (DMF) at a concentration of 5 mg/mL. Working solutions of the tested compounds were then prepared from the stock solutions, in Mueller-Hinton broth (MHB) with a starting concentration of 64 μg/mL.
Bacterial inocula were prepared from overnight culture (i.e., one fresh colony from agar plate in 5 ml MHB; H. influenzae was grown in MHB with the addition of yeast extract, haematin, and NAD), centrifuged 2×5 min/3000 rpm (for S. pneumoniae and H. influenzae, 2×10 min/3000 rpm), and dispensed in 5 ml of fresh MHB each time, such that the bacterial suspension is diluted to obtain 100 colony forming units (cfu) in a microplate well (100 μl total volume).
Microplate wells were filled with two-fold dilutions of test compound (50 Al), starting with 64 μg/ml. Wells were then filled with 50 μl of bacterial inoculum (final volume: 100 μl/well). The plates were incubated at 37° C. for 18-24 hours (S. pneumoniae was grown in a CO2-enriched atmosphere).

S pneumoniae = details: broth microdilution, 18-24 h, CO2-enriched atmosphere, MIC = 90% inhibition of growth; for MIC: read-out: MIC S pneumoniae MIC6

| Compound | MIC (E faecalis) [µg/mL] | MIC (M. catarrhalis) [µg/mL] | MIC (P aeruginosa; read-out: MIC P aeruginosa MIC2) [µg/mL] | MIC (E coli) [µg/mL] | MIC (S cerevisiae) [µg/mL] | MIC (S aureus) [µg/mL] | MIC (H influenzae) [µg/mL] | MIC (E coli (ImpA)) [µg/mL] | MIC (S pneumoniae) [µg/mL] | MIC E faecalis MIC2 (E faecalis) [µg/mL] | MIC M. catarrhalis MIC2 (M. catarrhalis) [µg/mL] | MIC E coli MIC2 (E coli) [µg/mL] | MIC S cerevisiae MIC7 (S cerevisiae) [µg/mL] | MIC S aureus MIC2 (S aureus) [µg/mL] | MIC H influenzae MIC4 (H influenzae) [µg/mL] | MIC E coli (ImpA) MIC9 (E coli (ImpA)) [µg/mL] | MIC S pneumoniae MIC6 (S pneumoniae) [µg/mL] | MIC P aeruginosa MIC2 (P aeruginosa) [µg/mL] |
| --- | --- | --- | --- | --- | --- | --- | --- | --- | --- | --- | --- | --- | --- | --- | --- | --- | --- | --- |
| CNS(=O)(=O)c1nnc(-c2ccc([N+](=O)[O-])o2)n1C [Compound 106, 5-[2-(5-Nitro)furyl]-4-methyl-4H-1,2,4-triazole-3-methyl Sulfonamide] | > 64 | 2 (≈ 6.96 µM) | > 64 | 8 (≈ 27.8 µM) | 64 (≈ 223 µM) | > 64 | 32 (≈ 111 µM) | 4 (≈ 13.9 µM) | 64 (≈ 223 µM) | – | – | – | – | – | – | – | – | – |
| Nn1c(S)nnc1-c1ccc([N+](=O)[O-])o1 [Compound 110] | > 128 | 32 (≈ 141 µM) | – | 16 (≈ 70.4 µM) | 64 (≈ 282 µM) | 32 (≈ 141 µM) | 8 (≈ 35.2 µM) | – | 32 (≈ 141 µM) | – | – | – | – | – | – | – | – | – |
| Cn1c(SCCCO)nnc1-c1ccc([N+](=O)[O-])o1 [Compound 116, 5-[2-(5-Nitro)furyl]-4-methyl-4H-1,2,4-triazole-3-(3-hydroxypropyl)-thiol] | 8 (≈ 28.1 µM) | 0.5 (≈ 1.76 µM) | – | 8 (≈ 28.1 µM) | > 64 | 8 (≈ 28.1 µM) | 16 (≈ 56.3 µM) | 1 (≈ 3.52 µM) | 8 (≈ 28.1 µM) | – | – | – | – | – | – | – | – | – |
| O=[N+]([O-])c1ccc(-c2nnc(S)[nH]2)o1 [Compound 117] | 32 (≈ 151 µM) | 2 (≈ 9.43 µM) | – | > 64 | > 64 | 64 (≈ 302 µM) | 8 (≈ 37.7 µM) | 16 (≈ 75.4 µM) | 2 (≈ 9.43 µM) | – | – | – | – | – | – | – | – | – |
| O=[N+]([O-])c1ccc(-c2nnc(S)n2CCCN2CCOCC2)o1 [Compound 120] | – | – | – | – | – | – | – | – | – | 64 (≈ 189 µM) | 2 (≈ 5.89 µM) | >64 | 64 (≈ 189 µM) | 64 (≈ 189 µM) | 16 (≈ 47.1 µM) | 32 (≈ 94.3 µM) | 16 (≈ 47.1 µM) | – |
| Cn1c(SCC#N)nnc1-c1ccc([N+](=O)[O-])o1 [Compound 121] | – | – | – | – | – | – | – | – | – | 64 (≈ 241 µM) | 1 (≈ 3.77 µM) | 8 (≈ 30.2 µM) | >64 | 16 (≈ 60.3 µM) | 16 (≈ 60.3 µM) | 2 (≈ 7.54 µM) | 16 (≈ 60.3 µM) | – |
| Cn1c(-c2ccc([N+](=O)[O-])o2)nnc1S(=O)(=O)Nc1ccccc1 [Compound 123] | – | – | – | – | – | – | – | – | – | 64 (≈ 183 µM) | 1 (≈ 2.86 µM) | >64 | >64 | 64 (≈ 183 µM) | 16 (≈ 45.8 µM) | 16 (≈ 45.8 µM) | 8 (≈ 22.9 µM) | >64 |
| CSc1nnc(-c2ccc([N+](=O)[O-])o2)n1C [Compound 124] | 32 (≈ 133 µM) | 1 (≈ 4.16 µM) | – | 64 (≈ 266 µM) | 16 (≈ 66.6 µM) | 16 (≈ 66.6 µM) | 8 (≈ 33.3 µM) | 2 (≈ 8.32 µM) | 8 (≈ 33.3 µM) | – | – | – | – | – | – | – | – | – |
| O=[N+]([O-])c1ccc(-c2nnc(S)n2Cc2ccco2)o1 [Compound 125] | – | – | – | – | – | – | – | – | – | 64 (≈ 219 µM) | 0.5 (≈ 1.71 µM) | >64 | >64 | 8 (≈ 27.4 µM) | 4 (≈ 13.7 µM) | 4 (≈ 13.7 µM) | 8 (≈ 27.4 µM) | >64 |
| CCn1c(S)nnc1-c1ccc([N+](=O)[O-])o1 [Compound 126] | 64 (≈ 266 µM) | 4 (≈ 16.6 µM) | – | > 64 | > 64 | > 64 | 32 (≈ 133 µM) | – | 16 (≈ 66.6 µM) | – | – | – | – | – | – | – | – | – |
| O=[N+]([O-])c1ccc(-c2nnc(S(=O)(=O)O)n2-c2ccccc2)o1 [Compound 127] | – | – | – | – | – | – | – | – | – | >64 | 32 (≈ 95.2 µM) | >64 | >64 | >64 | >64 | 64 (≈ 190 µM) | >64 | >64 |
| Cn1c(SCc2ccncc2)nnc1-c1ccc([N+](=O)[O-])o1 [Compound 129] | – | – | – | – | – | – | – | – | – | 64 (≈ 202 µM) | 0.5 (≈ 1.58 µM) | 64 (≈ 202 µM) | >64 | 16 (≈ 50.4 µM) | 16 (≈ 50.4 µM) | 4 (≈ 12.6 µM) | 16 (≈ 50.4 µM) | – |
| C=CCn1c(S)nnc1-c1ccc([N+](=O)[O-])o1 [Compound 130] | – | – | – | – | – | – | – | – | – | 64 (≈ 254 µM) | 4 (≈ 15.9 µM) | >64 | >64 | >64 | 32 (≈ 127 µM) | 64 (≈ 254 µM) | 16 (≈ 63.4 µM) | – |
| CCCCn1c(S)nnc1-c1ccc([N+](=O)[O-])o1 [Compound 133] | – | – | – | – | – | – | – | – | – | >64 | 32 (≈ 119 µM) | >64 | 64 (≈ 239 µM) | 64 (≈ 239 µM) | 32 (≈ 119 µM) | 64 (≈ 239 µM) | 64 (≈ 239 µM) | – |
| O=[N+]([O-])c1ccc(-c2nnc(S)n2-c2ccccc2)o1 [Compound 134] | – | – | – | – | – | – | – | – | – | 64 (≈ 222 µM) | 0.25 (≈ 0.867 µM) | – | >64 | 2 (≈ 6.94 µM) | 8 (≈ 27.8 µM) | 2 (≈ 6.94 µM) | 8 (≈ 27.8 µM) | – |
| O=[N+]([O-])c1ccc(-c2nnc(S)n2Cc2ccccc2)o1 [Compound 135] | – | – | – | – | – | – | – | – | – | 16 (≈ 52.9 µM) | 1 (≈ 3.31 µM) | >64 | >64 | 32 (≈ 106 µM) | 64 (≈ 212 µM) | 32 (≈ 106 µM) | 8 (≈ 26.5 µM) | – |
| O=[N+]([O-])c1ccc(-c2nnc(S)n2-c2ccc(F)cc2)o1 [Compound 136] | – | – | – | – | – | – | – | – | – | 64 (≈ 209 µM) | 4 (≈ 13.1 µM) | >64 | 64 (≈ 209 µM) | 32 (≈ 104 µM) | 16 (≈ 52.2 µM) | 16 (≈ 52.2 µM) | 8 (≈ 26.1 µM) | – |
| O=[N+]([O-])c1ccc(-c2nnc(S)n2C2CCCCC2)o1 [Compound 137] | – | – | – | – | – | – | – | – | – | 32 (≈ 109 µM) | 1 (≈ 3.4 µM) | >64 | >64 | >64 | 16 (≈ 54.4 µM) | 32 (≈ 109 µM) | 8 (≈ 27.2 µM) | – |
| O=[N+]([O-])c1ccc(-c2nnc(S)n2-c2ccc(I)cc2)o1 [Compound 138] | – | – | – | – | – | – | – | – | – | 1 (≈ 2.41 µM) | <0.12 | >64 | 16 (≈ 38.6 µM) | 0.5 (≈ 1.21 µM) | 8 (≈ 19.3 µM) | 0.25 (≈ 0.604 µM) | – | – |
| O=[N+]([O-])c1ccc(-c2nnc(S)n2-c2ccc(Cl)cc2)o1 [Compound 139, 4-(4-Chlorophenyl)-5-(5-nitrofuranyl)-4H-1,2,4-triazol-3-thiol] | 2 (≈ 6.2 µM) | < 0.12 | – | > 64 | 32 (≈ 99.2 µM) | 0.25 (≈ 0.775 µM) | 2 (≈ 6.2 µM) | < 0.12 | 2 (≈ 6.2 µM) | – | – | – | – | – | – | – | – | – |
| O=[N+]([O-])c1ccc(-c2nnc(S)n2-c2ccc(Br)cc2)o1 [Compound 141] | – | – | – | – | – | – | – | – | – | 2 (≈ 5.45 µM) | 0.125 (≈ 0.34 µM) | >64 | 64 (≈ 174 µM) | 0.25 (≈ 0.681 µM) | 8 (≈ 21.8 µM) | <0.12 | 2 (≈ 5.45 µM) | – |
| O=[N+]([O-])c1ccc(-c2nnc(S)n2-c2ccc(Br)c(Cl)c2)o1 [Compound 142] | – | – | – | – | – | – | – | – | – | 1 (≈ 2.49 µM) | <0.12 | >64 | 64 (≈ 159 µM) | <0.12 | 8 (≈ 19.9 µM) | <0.12 | 2 (≈ 4.98 µM) | – |
